# Source: article PMC7044277 (Nature Communications, 2020)
# “And” between values parts separate entries of the source, which are not always exact repeats. Equal entries are not always repeated.
# Legend:
# Assay type in all cases: cell-based
# [1] = molecular target: T1, 320 non-olfactory GPCRs (Homo sapiens, UniProt P25100)
# T1 construct: expressed in transfected cells; host or cells: HTLA cells
# [2] = molecular target: T2, 320 non-olfactory GPCRs (Homo sapiens, UniProt Q9BPV8); details: receptor P2RY13; replicate values, Fig_4g
# T2 construct: expressed in transfected cells; host or cells: HTLA cells
# T2 sequence (Q9BPV8 whole entry): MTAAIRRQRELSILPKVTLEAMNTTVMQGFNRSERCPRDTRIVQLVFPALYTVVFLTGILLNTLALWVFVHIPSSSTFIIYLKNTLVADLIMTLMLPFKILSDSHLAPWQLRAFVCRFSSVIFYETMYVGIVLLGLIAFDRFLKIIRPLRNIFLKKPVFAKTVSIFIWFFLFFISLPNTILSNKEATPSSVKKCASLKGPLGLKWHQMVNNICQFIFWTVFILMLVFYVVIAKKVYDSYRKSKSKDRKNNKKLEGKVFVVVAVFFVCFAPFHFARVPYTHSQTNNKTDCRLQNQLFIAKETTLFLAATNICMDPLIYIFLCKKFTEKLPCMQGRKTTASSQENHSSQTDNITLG
# [3] = molecular target: T3, 320 non-olfactory GPCRs (Homo sapiens, UniProt Q96G91); details: receptor P2RY11; replicate values, Fig_4g
# T3 construct: expressed in transfected cells; host or cells: HTLA cells
# T3 sequence (Q96G91 whole entry): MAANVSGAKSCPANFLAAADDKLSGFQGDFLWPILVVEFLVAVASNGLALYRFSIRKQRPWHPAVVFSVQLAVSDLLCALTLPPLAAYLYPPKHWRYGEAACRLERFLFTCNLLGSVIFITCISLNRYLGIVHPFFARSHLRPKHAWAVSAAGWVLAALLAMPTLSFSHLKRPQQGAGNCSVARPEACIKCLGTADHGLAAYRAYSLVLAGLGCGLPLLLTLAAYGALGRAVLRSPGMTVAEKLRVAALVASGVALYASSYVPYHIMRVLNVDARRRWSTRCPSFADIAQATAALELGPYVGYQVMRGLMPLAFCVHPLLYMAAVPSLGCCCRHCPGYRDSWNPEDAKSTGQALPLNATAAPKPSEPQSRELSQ
# [4] = molecular target: T4, 320 non-olfactory GPCRs (Homo sapiens, UniProt Q15761); details: receptor NPY5R; replicate values, Fig_4g
# T4 construct: expressed in transfected cells; host or cells: HTLA cells
# T4 sequence (Q15761 whole entry): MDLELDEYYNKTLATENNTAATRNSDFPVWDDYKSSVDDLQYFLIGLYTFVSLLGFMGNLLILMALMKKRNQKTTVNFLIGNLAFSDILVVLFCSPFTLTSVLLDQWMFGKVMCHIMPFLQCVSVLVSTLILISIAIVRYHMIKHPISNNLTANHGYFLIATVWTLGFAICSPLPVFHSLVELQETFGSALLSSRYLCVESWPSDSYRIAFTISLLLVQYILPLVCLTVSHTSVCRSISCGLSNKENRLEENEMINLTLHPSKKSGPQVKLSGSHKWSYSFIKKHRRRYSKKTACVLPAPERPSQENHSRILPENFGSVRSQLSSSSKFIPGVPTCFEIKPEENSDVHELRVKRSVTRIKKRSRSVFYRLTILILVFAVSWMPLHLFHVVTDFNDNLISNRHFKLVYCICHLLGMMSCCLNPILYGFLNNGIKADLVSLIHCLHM
# 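Throughout, for Fold of Basal: compound tested at 1 µM final concentration.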
# 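Throughout, for GPCRome agonism screen response: fold over basal response of each receptor without drug.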
# T1 sequence (P25100 whole entry): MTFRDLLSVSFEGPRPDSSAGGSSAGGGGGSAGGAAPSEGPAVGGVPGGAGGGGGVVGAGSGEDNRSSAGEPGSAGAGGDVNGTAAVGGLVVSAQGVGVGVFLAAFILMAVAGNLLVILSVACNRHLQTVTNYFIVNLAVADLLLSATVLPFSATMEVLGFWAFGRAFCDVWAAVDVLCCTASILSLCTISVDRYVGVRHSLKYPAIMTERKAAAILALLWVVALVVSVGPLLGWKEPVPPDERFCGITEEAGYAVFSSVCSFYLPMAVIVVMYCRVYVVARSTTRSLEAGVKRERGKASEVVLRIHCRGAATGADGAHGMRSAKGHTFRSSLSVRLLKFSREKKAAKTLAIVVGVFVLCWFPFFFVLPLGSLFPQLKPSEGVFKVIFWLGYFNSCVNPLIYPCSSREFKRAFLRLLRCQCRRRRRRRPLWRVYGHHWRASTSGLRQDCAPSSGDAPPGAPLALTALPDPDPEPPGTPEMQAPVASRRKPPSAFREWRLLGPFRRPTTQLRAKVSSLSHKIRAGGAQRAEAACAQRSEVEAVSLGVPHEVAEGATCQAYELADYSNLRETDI
structure (smiles),measurement,setting,value
CCOc1cccc2cc(C(C)NCC3(O)CCCCC3)oc12 (stereo not shown) [O4LE6],Fold of Basal,[1],1.061 and 0.9787 and 0.8777 and 0.6895
same,GPCRome agonism screen response,[2],0.7893 and 1.044 and 0.6466 and 2.085
same,GPCRome agonism screen response,[3],1.047 and 1.146 and 1.063 and 1.471
same,GPCRome agonism screen response,[4],1.549 and 1.454 and 1.619 and 1.735
